Legend:
human PDE4B1 [1] = biological target: T1, human PDE4B1 (Homo sapiens (Human), UniProt Q07343); test: TR-FRET assay using the LANCE Ultra cAMP kit to determine the activity of hPDE4B1; type: biochemical; conditions: IC50 inhibition of PDE4B, mean
Source text: TR-FRET Assay Using the LANCE® Ultra cAMP Kit to Determine the Activity of hPDE4B1
The effects of the compounds on the activity of the human PDE4B1 was quantified by measuring the production of 5′AMP from cAMP using a human recombinant enzyme expressed in Sf9 cells and the LANCE® Ultra cAMP kit, a TR-FRET detection method from PerkinElmer. The human PDE4B1 enzyme was purchased from SignalChem Lifesciences (Catalog# P92-31BG, Lot# H296-2).
The test compound, reference compound or water (control) was mixed with the enzyme (0.96 U) in a reaction buffer containing 50 mM Tris-HCl, 50 mM MgCl2 and 5 mM DTT (pH 8.5). Thereafter, the reaction was initiated by addition of 500 nM cAMP (substrate) and the mixture was incubated for 30 minutes at room temperature. For control basal measurements, the enzyme was omitted from the reaction mixture. After 30 minutes, the reaction was stopped and diluted by a factor of 100 with the reaction buffer supplemented with 500 μM IBMX. The fluorescence donor (europium chelate-labeled cAMP) and the fluorescence acceptor (anti-cAMP antibody labeled with the ULight™ dye) were then added together with 500 μM IBMX to a 10 μl aliquot. After 60 minutes, the fluorescence transfer corresponding to the amount of residual cAMP was measured at λex=337 nm, λem=620 nm and λem=665 nm using a microplate reader (PHERAstar, BMG). The enzyme activity was determined by dividing the signal measured at 665 nm by that measured at 620 nm (ratio) multiplied by 10000. The results were expressed as percent inhibition of the control enzyme activity. IC50 values (IC50=concentration causing a half-maximal inhibition of control specific activity) were derived from dose response measurements with ten different concentrations (n=3; N=1-3).
Several compounds according to the invention are tested with above mentioned assay.

human PDE4B1 [2] = biological target: T1, human PDE4B1; test: cAMP HTRF assay to determine the activity of hPDE4B1; type: biochemical; conditions: IC50 inhibition of PDE4B; human recombinant PDE4B1, cAMP HTRF assay
In short: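 Recombinant human PDE4B1 expressed in Sf9 cells (4.8 U) was incubated with 40 nM cAMP for 30 min at room temperature in Tris buffer, pH 7.8, with MgCl2, DTT and Tween 20. HTRF detection of remaining cAMP followed, with 1 mM IBMX stop, read 60 min later as the 665/620 nm ratio. Results are % inhibition versus control.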

T1 sequence (Q07343 whole entry): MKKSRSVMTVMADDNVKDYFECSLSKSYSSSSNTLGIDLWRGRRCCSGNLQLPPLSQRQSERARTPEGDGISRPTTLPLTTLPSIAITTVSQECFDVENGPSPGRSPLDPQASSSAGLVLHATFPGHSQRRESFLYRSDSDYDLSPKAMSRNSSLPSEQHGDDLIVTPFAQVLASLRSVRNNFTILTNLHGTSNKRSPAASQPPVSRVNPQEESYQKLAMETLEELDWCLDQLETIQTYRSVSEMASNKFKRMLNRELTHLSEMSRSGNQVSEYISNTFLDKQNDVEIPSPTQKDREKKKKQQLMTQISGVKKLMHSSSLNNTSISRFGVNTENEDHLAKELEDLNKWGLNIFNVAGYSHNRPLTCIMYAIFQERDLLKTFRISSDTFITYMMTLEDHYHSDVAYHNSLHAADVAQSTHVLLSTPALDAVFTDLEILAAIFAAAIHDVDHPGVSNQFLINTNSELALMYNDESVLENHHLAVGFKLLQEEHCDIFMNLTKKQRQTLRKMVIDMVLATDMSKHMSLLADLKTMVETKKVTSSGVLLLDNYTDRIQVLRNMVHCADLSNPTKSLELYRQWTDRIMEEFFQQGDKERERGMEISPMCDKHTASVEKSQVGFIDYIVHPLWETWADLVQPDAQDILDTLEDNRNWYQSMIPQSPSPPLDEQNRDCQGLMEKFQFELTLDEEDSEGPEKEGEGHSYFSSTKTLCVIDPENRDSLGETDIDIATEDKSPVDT

Row | SMILES | IC50 (human PDE4B1 [1]) [µM] | IC50 (human PDE4B1 [2]) [µM]
1 | CN(CCO)C(=O)c1ccc2c(c1)N(c1ncc(-c3cccnn3)cn1)CC21CC1 [Compound 262, N-(2-Hydorxy-ethyl)-N-methyl-1-(5-pyridazin-3-yl-pyrimidin-2-yl)-spiro[1,2-dihydro-indole-3,1′-cyclopropane]-6-carboxylic acid amide] | < 0.1 | 
2 | CN(CCO)C(=O)c1ccc2c(c1)N(c1ncc(-c3cc(F)ccc3F)cn1)CC21CC1 [Compound 364, 1-[5-(2,5-Difluoro-phenyl)-pyrimidin-2-yl]-N-(2-hydroxy-ethyl)-N-methyl-spiro[1,2-dihydro-indole-3,1′-cyclopropane]-6-carboxylic acid amide] | < 0.1 | 
3 | Cc1cc(N)cc(-c2cnc(N3CC4(CC4)c4ccc(C(=O)N(C)CCO)cc43)nc2)n1 [Compound 261, 1-[5-(4-Amino-6-methyl-pyridin-2-yl)-pyrimidin-2-yl]-N-(2-hydroxy-ethyl)-N-methyl-spiro[1,2-dihydro-indole-3,1′-cyclopropane]-6-carboxylic acid amide] | < 0.1 | 
4 | Cc1cnnc(-c2cnc(N3CC4(CC4)c4ccc(C(=O)N(C)CCO)cc43)nc2)c1 [Compound 290, N-(2-hydroxyethyl)-N-methyl-1′-(5-(5-methylpyridazin-3-yl)pyrimidin-2-yl)spiro[cyclopropane-1,3′-indoline]-6′-carboxamide] | < 0.1 | 
5 | CN(CCO)C(=O)c1ccc2c(c1)N(c1ncc(-c3cc([S+](C)[O-])ccc3F)cn1)CC21CC1 (stereo not drawn) [Compound 287, 1-[5-[2-Fluoro-5-(methylsulfinyl)-phenyl]-pyrimidin-2-yl]-N-(2-hydroxy-ethyl)-N-methyl-spiro[1,2-dihydro-indole-3,1′-cyclopropane]-6-carboxylic acid amide] | < 0.1 | 
6 | CN(CCO)C(=O)c1ccc2c(c1)N(c1ncc(-c3cc(C(N)=O)cs3)cn1)CC21CC1 [Compound 348, 1-[5-(4-Carbamoyl-thiophen-2-yl)-pyrimidin-2-yl]-N-(2-hydroxy-ethyl)-N-methyl-spiro[1,2-dihydro-indole-3,1′-cyclopropane]-6-carboxylic acid amide] | < 0.1 | 
7 | CN(CCO)C(=O)c1ccc2c(c1)N(c1ncc(-c3cc(C4CC4)ccn3)cn1)CC21CC1 [Compound 254, 1-[5-(4-Cyclopropyl-pyridin-2-yl)-pyrimidin-2-yl]-N-(2-hydroxy-ethyl)-N-methyl-spiro[1,2-dihydro-indole-3,1′-cyclopropane]-6-carboxylic acid amide] | < 0.1 | 
8 | C[C@@H](O)CN(C)C(=O)c1ccc2c(c1)N(c1ncc(-c3ccccc3F)cn1)CC21CC1 [Compound 283, 1-[5-(2-Fluorophenyl)-pyrimidin-2-yl)-N-[(2R)-2-hydroxy-propyl]-N-methyl-spiro[1,2-dihydro-indole-3,1′-cyclopropane]-6-carboxylic acid amide] | < 0.1 | 
9 | O=C1CN(C(=O)c2ccc3c(c2)N(c2ncc(-c4cc(O)ccn4)cn2)CC32CC2)CCN1 [Compound 265, 4-[1-[5-(4-Hydroxy-pyridin-2-yl)-pyrimidin-2-yl]-spiro[1,2-dihydro-indole-3,1′-cyclopropane]-6-carbonyl]-piperazin-2-one] | < 0.1 | 
10 | O=C(c1ccc2c(c1)N(c1ncc(-c3ccccc3F)cn1)CC21CC1)N1CC[C@H](CO)C1 [Compound 310, [1-[5-(2-Fluorophenyl)-pyrimidin-2-yl]-spiro[1,2-dihydro-indole-3,1′-cyclopropane]-6-yl]-[(3S)-3-(hydroxymethyl)-pyrrolidin-1-yl]-methanone] | < 0.1 | 
11 | CCc1cccc(-c2cnc(N3CC4(CC4)c4ccc(C(=O)N(C)CCO)cc43)nc2)n1 [Compound 268, 1-[5-(6-Ethyl-pyridin-2-yl)-pyrimidin-2-yl]-N-(2-hydroxy-ethyl)-N-methyl-spiro[1,2-dihydro-indole-3,1′-cyclopropane]-6-carboxylic acid amide] | < 0.1 | 
12 | O=C(c1ccc2c(c1)N(c1ncc(-c3ccccc3F)cn1)CC21CC1)N1CCC2(CCCN2)C1 (stereo not drawn) [Compound 226, (1,-Diazaspiro[4.4]nonan-7-yl)-[1-[5-(2-fluorophenyl)-pyrimidin-2-yl]-spiro[1,2-dihydro-indole-3,1′-cyclopropane]-6-yl]-methanone] | 0.1 to 1 | 
13 | COc1cnnc(-c2cnc(N3CC4(CC4)c4ccc(C(=O)N(C)CCO)cc43)nc2)c1 [Compound 340, N-(2-Hydroxy-ethyl)-1-[5-(5-methoxy-pyridazin-3-yl)-pyrimidin-2-yl]-N-methyl-spiro[1,2-dihydro-indole-3,1′-cyclopropane]-6-carboxylic acid amide] | < 0.1 | 
14 | CN(C)c1ccnc(-c2cnc(N3CC4(CC4)c4ccc(C(=O)N5C[C@@H]6C[C@H]5CN6)cc43)nc2)c1 [Compound 302, [(1S,4S)-2,5-Diazabicyclo[2.2.1]heptan-2-yl]-[1-[5-(4-dimethylamino-pyridin-2-yl)-pyrimidin-2-yl]-spiro[1,2-dihydro-indole-3,1′-cyclopropane]-6-yl]-methanone] | < 0.1 | 
15 | CCc1ccnc(-c2cnc(N3CC4(CC4)c4ccc(C(=O)N5CCCC5)cc43)nc2)c1 [Compound 275, [1-[5-(4-Ethyl-pyridin-2-yl)-pyrimidin-2-yl]-spiro[1,2-dihydro-indole-3,1′-cyclopropane]-6-yl]-pyrrolidin-1-yl-methanone] | < 0.1 | 
16 | COc1cc(C)nc(-c2cnc(N3CC4(CC4)c4ccc(C(=O)N(C)CCO)cc43)nc2)c1 [Compound 282, N-(2-Hydroxy-ethyl)-1-[5-(4-methoxy--methyl-pyridin-2-yl)-pyrimidin-2-yl]-N-methyl-spiro[1,2-dihydro-indole-3,1′-cyclopropane]-6-carboxylic acid amide] | < 0.1 | 
17 | Nc1ccnc(-c2cnc(N3CC4(CC4)c4ccc(C(=O)N5C[C@@H]6C[C@H]5CN6)cc43)nc2)c1 [Compound 301, [1-[5-(4-Amino-pyridin-2-yl)-pyrimidin-2-yl]-spiro[1,2-dihydro-indole-3,1′-cyclopropane]-6-yl]-[(1S,4S)-2,5-diazabicyclo[2.2.1]heptan-2-yl]-methanone] | < 0.1 | 
18 | Cc1ccnc(-c2cnc(N3CC4(CC4)c4ccc(C(=O)N5CCNC(=O)C5)cc43)nc2)c1 [Compound 222, 4-[1-[5-(4-Methyl-pyridin-2-yl)-pyrimidin-2-yl]-spiro[1,2-dihydro-indole-3,1′-cyclopropane]-6-carbonyl]-piperazin-2-one] | < 0.1 | 
19 | Cc1ccccc1-c1cnc(N2CC3(CC3)c3ccc(C(=O)N4CCOCC4)cc32)nc1 [Compound 12, Morpholin-4-yl-[1-(5-o-tolyl-pyrimidin-2-yl)-spiro[1,2-dihydro-indole-3,1′-cyclopropane]-6-yl]-methanone] |  | < 0.1
20 | O=C(c1cnc2c(c1)N(c1ncc(-c3ccccc3F)cn1)CC21CC1)N1CCOCC1 [Compound 169, [1-[5-(2-Fluorophenyl)-pyrimidin-2-yl]-spiro[1,2-dihydro-pyrrolo[3,2-b]pyridine-3,1′-cyclopropane]-6-yl]-morpholin-4-yl-methanone] |  | 0.1 to 1
21 | Cc1ccnc(-c2cnc(N3CC4(CC4)c4ccc(C(=O)N(C)CCO)cc43)nc2)c1 [Compound 210, N-(2-Hydroxy-ethyl)-N-methyl-1-[5-(4-methyl-pyridin-2-yl)-pyrimidin-2-yl]-spiro[1,2-dihydro-indole-3,1′-cyclopropane]-6-carboxylic acid amide] |  | < 0.1

Reference: patent US10189854B2, “Substituted pyrimidine compounds” (Grünenthal GmbH, priority 2014, dated 2019)
